# Experimental data: patent US8685981B2, “Cyclic compound having hetero atom” (Daiichi Sankyo Company, Limited, priority 2009, dated 2014)
# Tested on: ST2 cells, murine bone marrow-derived stromal cells
# Experiment: Osteoblast differentiation test (alkaline phosphatase activity)
# Type: cell-based
# Settings: Mus musculus, ST-2, 96 h, at 0.03 μg/mL, four days of culturing, control group (0.1% DMSO) set at 100%, read-out: increase (%) in alkaline phosphatase activity
# Method: ST2 cells, murine bone marrow-derived stromal cells, (obtained from RIKEN) were used.
# In this test, α-MEM media (obtained from GIBCO BRL Cat. No. 10370-021) containing 10% (v/v) of inactivated calf serum (obtained from Hyclone Laboratories, Inc.) and 1% (v/v) of Penicillin-Streptomycin Liquid (obtained from GIBCO BRL Cat. No. 15140-122) (hereinbelow, abbreviated as 10%-FBS-αMEM) were used. In this test, all culturing was performed in a CO2 incubator (37° C., 95% humidity, 5% CO2).
# The aforementioned cells were detached with 2 mL of a 0.25% trypsin solution (obtained from GIBCO BRL Cat. No. 15050-065) and dispersed in 10 mL of 10%-FBS-αMEM. Subsequently, the cells were collected by centrifugation (25° C., 800 rpm, five minutes). Then, a cell suspension containing 40000 of the cells/mL of 10%-FBS-αMEM was prepared. The cell suspension was then dispensed into 96-well plates (the product of Falcon), 100 μL per well, at a density of 4000 cells/well, followed by culturing for 24 hours. To the wells except for the below-described well containing a control group, the compound was dispensed at final concentrations of 0.01, 0.03, 0.1, and 0.3 μg/ml. To the well of a control group, DMSO was dispensed at a final concentration of 0.1% (v/v). After four days of culturing, the activity of alkaline phosphatase (ALP) was measured in each group.
# The measurement of ALP activity was performed as follows. That is, the medium in each well of the culture plates was completely removed. Each well was then washed by dispensing 100 μL of Dulbecco's phosphate buffer (obtained from GIBCO BRL Cat. No. 14190-144) and then removing it. A cell lysate solution containing 10 mM MgCl2 and 2% (v/v) TritonX-100 (Sigma) was prepared and dispensed at 50 μL/well, followed by stirring at room temperature for five minutes. An ALP substrate solution containing 50 mM diethanolamine (Wako pure chemical industries, Ltd., Cat. No. 099-03112) and 20 mM p-nitrophenyl phosphate (Wako pure chemical industries, Ltd., Cat. No. 147-02343) was prepared and dispensed at 50 μL/well, and the plates were left to stand at room temperature for 10 minutes. Subsequently, absorbance was measured by a microplate reader (Bio-Rad Laboratories, Inc.). Setting the measurement value of the control group of each plate at 100%, the increase (%) in alkaline phosphatase activity in the test compound-addition group was calculated, which was assessed as the degree of osteoblast differentiation.
row,Structure (SMILES),activity at 0.03 µg/mL [%]
1,"COCCOC1CCN(c2cncc3ccc(C(N)=O)nc23)CC1 [Example 1, 8-[4-(2-Methoxyethoxy)piperidin-1-yl]-1,6-naphthyridine-2-carboxamide]",≥ 200
2,"CCOCCOC1CCN(c2cncc3ccc(C(N)=O)nc23)CC1 [Example 2, 8-[4-(2-Ethoxyethoxy)piperidin-1-yl]-1,6-naphthyridine-2-carboxamide]",≥ 200
3,"NC(=O)c1ccc2cncc(N3CCC(OCCOCC4CCOC4)CC3)c2n1 (centres unmarked) [Example 5, 8-{4-[2-(Tetrahydrofuran-3-ylmethoxy)ethoxy]piperidin-1-yl}-1,6-naphthyridine-2-carboxamide]",≥ 200
4,"NC(=O)c1ccc2cncc(N3CCC(OCCOC4CCOCC4)CC3)c2n1 [Example 6, 8-{4-[2-(Tetrahydro-2H-pyran-4-yloxy)ethoxy]piperidin-1-yl}-1,6-naphthyridine-2-carboxamide]",≥ 200
5,"CN(C)C(=O)COC1CCN(c2cncc3ccc(C(N)=O)nc23)CC1 [Example 8, 8-{4-[2-(Dimethylamino)-2-oxoethoxy]piperidin-1-yl}-1,6-naphthyridine-2-carboxamide]",≥ 200
6,"CN(CCOC1CCN(c2cncc3ccc(C(N)=O)nc23)CC1)S(C)(=O)=O [Example 9, 8-(4-{2-[Methyl(methylsulfonyl)amino]ethoxy}piperidin-1-yl)-1,6-naphthyridine-2-carboxamide]",≥ 200
7,"CN(C)C(=O)N1CCN(c2cncc3ccc(C(N)=O)nc23)CC1 [Example 10, 8-[4-(Dimethylcarbamoyl)piperazin-1-yl]-1,6-naphthyridine-2-carboxamide]",≥ 200
8,"COCC1CCCN(c2cncc3ccc(C(N)=O)nc23)C1 (centres unmarked) [Example 11, 8-[3-(Methoxymethyl)piperidin-1-yl]-1,6-naphthyridine-2-carboxamide]",≥ 200
9,"NC(=O)c1ccc2cncc(N3CCCCC3)c2c1 [Example 16, 4-(Piperidin-1-yl)isoquinoline-6-carboxamide]",≥ 200
10,"COCC1CCCN(c2cncc3ccc(C(N)=O)cc23)C1 (centres unmarked) [Example 17, 4-[3-(Methoxymethyl)piperidin-1-yl]isoquinoline-6-carboxamide]",≥ 200
11,"NC(=O)c1ccc2cncc(N3CCN(c4nccs4)CC3)c2c1 [Example 18, 4-[4-(1,3-Thiazol-2-yl)piperazin-1-yl]isoquinoline-6-carboxamide]",≥ 200
12,"NC(=O)c1ccc2cncc(N3CCC(OCCOC4CCCCO4)CC3)c2c1 (centres unmarked) [Example 19, 4-{4-[2-(Tetrahydro-2H-pyran-2-yloxy)ethoxy]piperidin-1-yl}isoquinoline-6-carboxamide]",≥ 200
13,"NC(=O)c1ccc2cncc(N3CCC(OCCO)CC3)c2c1 [Example 20, 4-[4-(2-Hydroxyethoxy)piperidin-1-yl]isoquinoline-6-carboxamide]",≥ 200
14,"CC(C)(C)OC(=O)NCCOCC1CCCN(c2cncc3ccc(C(N)=O)cc23)C1 (centres unmarked) [Example 21, Tert-butyl (2-{[1-(6-carbamoylisoquinolin-4-yl)piperidin-3-yl]methoxy}ethyl)carbamate]",≥ 200
15,"NC(=O)c1ccc2cncc(N3CCC(O)(c4ccccc4)CC3)c2c1 [Example 23, 4-(4-Hydroxy-4-phenylpiperidin-1-yl)isoquinoline-6-carboxamide]",≥ 200
16,"NC(=O)c1ccc2cncc(N3CC=C(c4ccccc4)CC3)c2c1 [Example 24, 4-(4-Phenyl-3,6-dihydropyridine-1(2H)-yl)isoquinoline-6-carboxamide]",≥ 200
17,NC(=O)c1ccc2cncc(N3CCN(c4ccccc4)CC3)c2n1 [Example 28],≥ 200
18,NC(=O)c1ccc2cncc(N3CCN(c4cccc(F)c4)CC3)c2n1 [Example 32],≥ 200
19,NC(=O)c1ccc2cncc(-n3cccc3)c2c1 [Example 34],≥ 200
20,NC(=O)c1ccc2cncc(N3CCOCC3)c2c1 [Example 35],≥ 200

row,Structure (SMILES),activity at 0.03 µg/mL [%]
1,NC(=O)c1ccc2cncc(N3CCCC3)c2c1 [Example 36],≥ 200
2,COCC1CCN(c2cncc3ccc(C(N)=O)cc23)CC1 [Example 37],≥ 200
3,CCOC1CCCN(c2cncc3ccc(C(N)=O)cc23)C1 (centres unmarked) [Example 38],≥ 200
4,COC[C@H]1CCCN(c2cncc3ccc(C(N)=O)cc23)C1 [Example 39],≥ 200
5,COC[C@@H]1CCCN(c2cncc3ccc(C(N)=O)cc23)C1 [Example 40],≥ 200
6,COCCC1CCCN(c2cncc3ccc(C(N)=O)cc23)C1 (centres unmarked) [Example 41],≥ 200
7,NC(=O)c1ccc2cncc(N3CCC(c4ccccc4)CC3)c2c1 [Example 42],≥ 200
8,NC(=O)c1ccc2cncc(N3CCC(F)(F)CC3)c2c1 [Example 43],≥ 200
9,NC(=O)c1ccc2cncc(N3CCC(C(F)(F)F)CC3)c2c1 [Example 44],≥ 200
10,NC(=O)c1ccc2cncc(N3CCC(F)CC3)c2c1 [Example 45],≥ 200
11,CC(=O)C1(c2ccccc2)CCN(c2cncc3ccc(C(N)=O)cc23)CC1 [Example 46],≥ 200
12,CC1CCN(c2cncc3ccc(C(N)=O)cc23)CC1 [Example 47],≥ 200
13,CC(=O)c1ccn(-c2cncc3ccc(C(N)=O)cc23)c1 [Example 48],≥ 200
14,NC(=O)c1ccc2cncc(N3CCN(c4ccc(Cl)cc4)CC3)c2c1 [Example 49],≥ 200
15,CC(=O)c1ccc(N2CCN(c3cncc4ccc(C(N)=O)cc34)CC2)cc1 [Example 50],≥ 200
16,NC(=O)c1ccc2cncc(N3CCC(COC4CCCCO4)CC3)c2c1 (centres unmarked) [Example 52],≥ 200
17,NC(=O)c1ccc2cncc(N3CCC(C4CCCCC4)CC3)c2c1 [Example 53],≥ 200
18,NC(=O)c1ccc2cncc(N3CCC(O)(c4ccc(Cl)cc4)CC3)c2c1 [Example 54],≥ 200
19,NC(=O)c1ccc2cncc(N3CCC(CO)CC3)c2c1 [Example 55],≥ 200
20,NC(=O)c1ccc2cncc(N3CCCC(CO)C3)c2c1 (centres unmarked) [Example 56],≥ 200

row,Structure (SMILES),activity at 0.03 µg/mL [%]
1,NC(=O)c1ccc2cncc(N3CCN(c4ccc([N+](=O)[O-])cc4)CC3)c2c1 [Example 57],≥ 200
2,NC(=O)c1ccc2cncc(N3CCc4ccccc4C3)c2c1 [Example 59],≥ 200
3,NC(=O)c1ccc2cncc(N3CCN(c4cccc(F)c4)CC3)c2c1 [Example 60],≥ 200
4,Cc1ccc(N2CCN(c3cncc4ccc(C(N)=O)cc34)CC2)cc1 [Example 61],≥ 200
5,N#Cc1ccc(N2CCN(c3cncc4ccc(C(N)=O)cc34)CC2)cc1 [Example 62],≥ 200
6,NC(=O)c1ccc2cncc(N3CCCN(c4ccccc4)CC3)c2c1 [Example 63],≥ 200
7,NC(=O)c1ccc2cncc(N3CCC(Oc4ccccc4)CC3)c2c1 [Example 64],≥ 200
8,NC(=O)c1ccc2cncc(N3CCC(C4CCOCC4)CC3)c2c1 [Example 65],≥ 200
9,Cc1ccn(-c2cncc3ccc(C(N)=O)cc23)c1 [Example 66],≥ 200
10,NC(=O)c1ccc2cncc(N3CC[C@@H]4CCCC[C@H]4C3)c2c1 [Example 67],≥ 200
11,NC(=O)c1ccc2cncc(N3CCC(OCC4CCCO4)CC3)c2c1 (centres unmarked) [Example 68],≥ 200
12,CC(C)(O)C1CCN(c2cncc3ccc(C(N)=O)cc23)CC1 [Example 69],≥ 200
13,NC(=O)c1ccc2cncc(N3CCC(C(=O)c4ccc(F)cc4)CC3)c2c1 [Example 70],≥ 200
14,NC(=O)c1ccc2cncc(N3CCC(CCOC4CCOCC4)CC3)c2c1 [Example 71],≥ 200
15,CC1CCN(c2cncc3ccc(C(N)=O)cc23)C1 (centres unmarked) [Example 72],≥ 200
16,COCC1CCN(c2cncc3ccc(C(N)=O)cc23)C1 (centres unmarked) [Example 73],≥ 200
17,CN(C)C(=O)C1CCN(c2cncc3ccc(C(N)=O)cc23)CC1 [Example 74],≥ 200
18,NC(=O)c1ccc2cncc(N3CCC(OC4CCCCO4)CC3)c2c1 (centres unmarked) [Example 75],≥ 200
19,COC1CCN(c2cncc3ccc(C(N)=O)cc23)CC1 [Example 76],≥ 200
